Results as given in patent US7157452B2, “Substituted 4,9-dihydrocyclopenta{imn}phenanthridine-5-ones derivatives thereof and their uses” (MGI GP, Inc., priority 2001, dated 2007).

How the values were obtained:
[1] = tested on: male Long-Evans rats; test: Focal cerebral ischemia (right distal MCA cauterization with temporary bilateral CCA occlusion); format: in vivo; conditions: 24 h, mean±SD
Description: Focal cerebral ischemia is produced by cauterization of the right distal MCA (middle cerebral artery) with bilateral temporary common carotid artery occlusion in male Long-Evans rats for 90 minutes. All procedures performed on the animals are approved by the University Institutional Animal Care and Use Committee of the University of Pennsylvania. A total of 42 rats (weights: 230–340 g) obtained from Charles River were used in this study. The animals fasted overnight with free access to water prior to the surgical procedure.
Two hours prior to MCA occlusion, varying amounts (control, n=14; 5 mg/kg, n=7; 10 mg/kg, n=7; 20 mg/kg, n=7; and 40 mg/kg, n=7) of the compound, 3,4-dihydro-5-[4-(1-piperidinyl)-butoxy]-1(2H)-isoquinolinone (“DPQ”) were dissolved in dimethyl sulfoxide (DMSO) using a sonicator. A volume of 1.28 ml/kg of the resulting solution was injected intraperitoneally into […].
The rats were then anesthetized with halothane (4% for induction and 0.8%–1.2% for the surgical procedure) in a mixture of 70% nitrous oxide and 30% oxygen. The body temperature was monitored by a rectal probe and maintained at 37.5±0.5° C. with a heating blanket regulated by a homeothermic blanket control unit (Harvard Apparatus Limited, Kent, U.K.). A catheter (PE-50) was placed into the tail artery, and arterial pressure was continuously monitored and recorded on a Grass polygraph recorder (Model 7D, Grass Instruments, Quincy, Mass.). Samples for blood gas analysis (arterial pH, PaO2 and PaCO2) were also talcen from the tail artery catheter and measure with a blood gas analyzer (ABL 30, Radiometer, Copenhagen, Denmark). Arterial blood samples were obtained 30 minutes after MCA occlusion.
The head of the animal was positioned in a stereotaxic frame, and a right parietal incision between the right lateral canthus and the external auditory meatus was made. Using a dental drill constantly cooled with saline, a 3 mm burr hole was prepared over the cortex supplied by the right MCA, 4 mm lateral to the sagittal suture and 5 mm caudal to the coronal suture. The dura mater and a thin inner bone layer were kept, care being taken to position the probe over a tissue area devoid of large blood vessels. The flow probe (tip diameter of 1 mm fiber separation of 0.23 mm) was lowered to the bottom of the cranial burr hole using a micromanipulator. The probe was held stationary by a probe holder secured to the skull with dental cement. The microvascular blood flow in the right parietal cortex was continuously monitored with a laser Doppler flowmeter (FloLab, Moor, Devon, U.K., and Periflux 4001, Perimed, Stockholm, Sweden). […]

[2] = tested on: PARP; conditions: read-out: IC50 for inhibiting PARP; reported by Suto et al.; cited from earlier work

Structure (SMILES): O=C1NCCc2c(OCCCCN3CCCCC3)cccc21 [DPQ, 3,4-dihydro-5-[4-(1-piperidinyl)-butoxy]-1(2H)-isoquinolinone]
- damaged volume (infarct volume) ([1]; 5 mg/kg i.p. 2 h before and 2 h after MCA occlusion, control 165.2±34.0, p<0.001): 106.7±23.2 mm^3
- damaged volume (infarct volume) ([1]; 10 mg/kg i.p. 2 h before and 2 h after MCA occlusion, control 165.2±34.0, p<0.001): 76.4±16.3 mm^3
- damaged volume (infarct volume) ([1]; 20 mg/kg i.p. 2 h before and 2 h after MCA occlusion, control 165.2±34.0, p<0.01): 110.2±42.0 mm^3
- damaged volume (infarct volume) ([1]; 40 mg/kg i.p. 2 h before and 2 h after MCA occlusion, no significant difference from control 165.2±34.0): 135.6±44.8 mm^3
- IC50 [2]: 40 nM
